The values below are quoted from earlier work in patent US20100272830A1, “Biocide Combination for use in Agricultural Applications” (Industrie De Nora S.p.A., priority 2008, published 2010).

Read-outs that look alike come from different tables or passages of the source.

For the compound `OCl` [Hypochlorous acid (HClO), Hypochlorous acid], the “HClO, % of total hypochlorite concentration” value (“HClO, %” below) (pH 5, 25° C.) is recorded as 99.7%; the “HClO, %” value (pH 6, 25° C.) is 96.9%; the “HClO, %” value (pH 7, 25° C.) is on record as 76.0%; the “HClO, %” value (pH 8, 25° C.) is recorded as 24%; the “HClO, %” value (pH 9, 25° C.) is 3.1%; the “HClO, %” value (pH 10, 25° C.) is reported as 0.31%. The “HClO, %” value (pH 11, 25° C.) is 0.03% and the “HClO, %” value (pH 12, 25° C.) is 0.003%.
